Test results as given in PubChem BioAssay (NCI).
Where “and” joins values, the source holds several entries; their conditions need not be identical. Identical values can stand only once.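 1) Cells in 96-well plates. 2) Compound, 48 h, 5 concentrations. 3) Linear interpolation between surrounding doses. 4) Unreached endpoint = highest concentration. At the GI50, growth is halved. At the TGI there is no net growth.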 Where a SMILES comes first, the peptide text is derived from it. [ ]: non-standard residue; d: D form. The star is where a group is joined. Phe(4-NO2) = N[CH](Cc1ccc([N+](=O)[O-])cc1)C(=O)O; Boc = CC(C)(C)OC(=O)*

Tests used:
Test in all cases: NCI-60 cell line screen, 48 h
A498 renal = system: A498 renal
CAKI-1 renal = system: CAKI-1 renal
HCT-15 colon = system: HCT-15 colon
HOP-62 NSCLC = system: HOP-62 NSCLC
HS 578T breast = system: HS 578T breast
MDA-MB-435 = system: MDA-MB-435
OVCAR-4 ovarian = system: OVCAR-4 ovarian
TK-10 renal = system: TK-10 renal
UACC-257 melanoma = system: UACC-257 melanoma
SR leukemia = system: SR leukemia

Row | Structure (SMILES) | TGI (A498 renal) | TGI (CAKI-1 renal) | TGI (HCT-15 colon) | TGI (HOP-62 NSCLC) | TGI (HS 578T breast) | TGI (MDA-MB-435) | TGI (OVCAR-4 ovarian) | TGI (TK-10 renal) | TGI (UACC-257 melanoma) | TGI (SR leukemia) | GI50 (HCT-15 colon)
1 | O=c1[nH]nc(-c2ccccc2)c2[nH]c3c(c12)Cc1ccccc1-3 | > 100 µM | > 100 µM | > 100 µM | > 100 µM | > 100 µM | 37.3 µM | > 100 µM | > 100 µM | > 100 µM |  | 
2 | c1cc2cc3c4c5c(cc6ccc7cc8cc9c%10c8c8c7c6c5c8c5c%10c(c1C9N1CCOCCOCCOCCOCCOCC1)c2c45)C3 (stereo not given) |  |  | > 100 µM | > 100 µM | > 100 µM | > 100 µM | > 100 µM | > 100 µM | > 100 µM | > 100 µM | 
3 | CC(C)(C)OC(=O)C(C#N)C(=O)c1ccc(C(=O)O)[nH]1 (stereo not given) | 77.2 µM | 41.5 µM | > 100 µM |  |  | > 100 µM | 52.9 µM | > 100 µM | > 100 µM |  | 
4 | COc1cccc2c1OC1c3ccccc3OCC1(O)C2 (stereo not given) | > 100 µM | > 100 µM | > 100 µM | > 100 µM |  | > 100 µM | > 100 µM | > 100 µM | > 100 µM |  | 
5 | O=C1C=CC2(O[C@H](C3CCCCC3)[C@@H](C3CCCCC3)O2)C(SC(=O)c2ccccc2)C1 (stereo not given in full) | 18.4 µM |  | 9.47 µM | 9.57 µM | 10.9 µM | 5.29 µM | 4.01 µM | 5.62 µM | 16.2 µM | 2.36 µM | 
6 | CC(=O)OCC1OC(SC2=NC(=O)CS2)C(OC(C)=O)C(OC(C)=O)C1OC(C)=O (stereo not given) | > 100 µM | > 100 µM | > 100 µM | > 100 µM | > 100 µM | > 100 µM |  | > 100 µM | > 100 µM | > 100 µM | 26.3 µM and 53 µM
7 | Oc1ccc(Cl)cc1-c1cc(-c2ccccc2)nc(=S)[nH]1 | > 100 µM | > 100 µM | > 100 µM | 46.9 µM | > 100 µM | > 100 µM | > 100 µM | 68.7 µM | > 100 µM |  | 
8 | Oc1ccc2ccccc2c1OCc1nnc(CCCCCCCCc2nnc(COc3c(O)ccc4ccccc34)n2Nc2ccccc2)n1Nc1ccccc1 | > 100 µM | > 56.5 µM | 77.7 µM | 41.9 µM | 65.2 µM | 31.8 µM | > 100 µM | > 100 µM | > 80 µM |  | 
9 | O=C1c2ccncc2C(=O)c2c(O)ccc(O)c21 | 33.1 µM |  | 24.3 µM | 61.6 µM |  |  | 23.6 µM | 42.3 µM |  | 52.3 µM | 
10 | COc1cccc(C(C#N)NNC(=O)c2c(Cl)c(Cl)c(Cl)c(Cl)c2-c2nc3ccc(C(=O)c4ccccc4)cc3[nH]2)c1O (stereo not given) | 7.29 µM | > 100 µM | > 100 µM | 8.59 µM |  |  | > 100 µM | > 100 µM | > 100 µM | > 100 µM | 
11 | C=CC(C)(C)/C=C/c1ccc(O)cc1 | > 100 µM | > 100 µM | > 100 µM | > 100 µM | > 100 µM | > 100 µM | > 100 µM | > 100 µM | > 100 µM |  | 
12 | C/C(=C\Cc1ccc(F)cc1)CCCCCC/C(C)=C/Cc1ccc(F)cc1 |  | 25.5 µM | 34.1 µM | 37.2 µM | 78.1 µM | 39 µM | 34.2 µM | 29.5 µM | 33.3 µM | 57.2 µM | 
13 | Cc1cn(C2CC(COCc3ccccc3)N(CCO[Si](C)(C)C(C)(C)C)O2)c(=O)[nH]c1=O (stereo not given) | 36.8 µM | 32.7 µM |  | 31 µM |  | 34.9 µM | 33.4 µM | 27.3 µM |  | 71.4 µM | 
14 | COC(=O)[C@@H](NS(=O)(=O)CC12CCC(CC1)C2(C)C)C(C)(C)C | > 100 µM | > 100 µM | > 100 µM |  | > 100 µM | > 100 µM | > 100 µM | > 100 µM | > 100 µM | > 100 µM | 
15 | COC(=O)C1C(=O)CC(C)(O)C(C(=O)OC)C1c1ccc(N(C)C)cc1 (stereo not given) | > 100 µM | > 100 µM | > 100 µM | > 100 µM |  | > 100 µM | > 100 µM | > 100 µM | > 100 µM | > 100 µM | 
16 | CCOC(=O)CCC(NC(=O)C(Cc1ccc([N+](=O)[O-])cc1)NC(=O)OC(C)(C)C)C(=O)NC(CCC(=O)OCC)C(=O)OCC (stereo not given) (Boc-[Phe(4-NO2)]-Glu(OEt)-Glu(OEt)-OEt; configuration not given here) | 36.4 µM |  | > 100 µM | 67.4 µM | 53.1 µM |  |  | 30.1 µM |  | 9.38 µM | 
17 | Cc1cc2nc3ccccc3n2c2ccccc12 |  | > 10 µM | > 10 µM | > 10 µM | > 10 µM | > 10 µM | > 10 µM | > 10 µM | > 10 µM | > 10 µM | 
18 | Cc1cc(C)c2c(c1)C/C(=C\c1cccc(C)c1C(=O)O)C2=O | > 100 µM | > 100 µM | > 100 µM | > 100 µM |  |  | > 100 µM | > 100 µM | > 100 µM | > 100 µM | 
19 | c1ccc2c[n+](CCCC[n+]3ccc4ccccc4c3)ccc2c1 | > 100 µM | > 100 µM | > 100 µM | > 100 µM |  | > 100 µM | > 100 µM | > 100 µM | > 100 µM | > 100 µM | 
20 | Cc1ccc(N2C(=O)C3CSCN3C2=O)cc1 (stereo not given) | > 100 µM | > 100 µM | > 100 µM | > 100 µM |  |  | > 100 µM |  | > 100 µM |  | 
21 | COc1cc(S(=O)(=O)Nc2ccc(-c3csc(N4C(=O)C(Cl)C4c4ccccc4O)n3)cc2)ccc1Cl (stereo not given) | 0.948 µM | > 100 µM | > 100 µM | > 100 µM | > 100 µM | > 100 µM | 70 µM |  | 88.6 µM | 52 µM | 
22 | CCOC(=O)CCc1cn2cc(Br)nc(OC)c2n1 |  | > 100 µM | > 100 µM | > 100 µM | > 100 µM | 26 µM | > 100 µM | > 100 µM | > 100 µM | > 100 µM | 
23 | CCOc1ccc2nc3nc(=O)[nH]c(C)c3c(NC(C)(CO)CO)c2c1 | > 100 µM | > 100 µM | > 100 µM | > 100 µM | > 100 µM | > 100 µM | > 100 µM | > 100 µM | > 100 µM |  | 
24 | O=S(=O)(/N=S(/Nc1ccccc1)C(F)(F)Cl)c1ccccc1 (stereo not given) | > 100 µM |  | > 100 µM | > 100 µM | > 100 µM | > 100 µM | > 100 µM | > 100 µM | > 100 µM | > 100 µM | 
